Experimental findings from paper PMC10590419, “Structural and mechanistic insights into the inhibition of respiratory syncytial virus polymerase by a non-nucleoside inhibitor” (Communications Biology, 2023) are described below.

By EC50 is commonly meant the concentration that produces a half-maximal response. The IC50 is the point on the concentration scale where inhibition reaches its midpoint. Low values mean greater potency, high ones weaker potency.

The test system of experiment [1] is rgRSV224 (RSV A2 reporter virus). Kind of experiment: Inhibition of rgRSV224 reporter RSV in HeLa cells (GFP). As to conditions: human respiratory syncytial virus, 72 h, read-out: Median EC50.
In experiment [2] the target is T1, Human DNA polymerase alpha (Homo sapiens, UniProt P09884).
T1 construct: purchased CHIMERx
T1 sequence (P09884 1-1462): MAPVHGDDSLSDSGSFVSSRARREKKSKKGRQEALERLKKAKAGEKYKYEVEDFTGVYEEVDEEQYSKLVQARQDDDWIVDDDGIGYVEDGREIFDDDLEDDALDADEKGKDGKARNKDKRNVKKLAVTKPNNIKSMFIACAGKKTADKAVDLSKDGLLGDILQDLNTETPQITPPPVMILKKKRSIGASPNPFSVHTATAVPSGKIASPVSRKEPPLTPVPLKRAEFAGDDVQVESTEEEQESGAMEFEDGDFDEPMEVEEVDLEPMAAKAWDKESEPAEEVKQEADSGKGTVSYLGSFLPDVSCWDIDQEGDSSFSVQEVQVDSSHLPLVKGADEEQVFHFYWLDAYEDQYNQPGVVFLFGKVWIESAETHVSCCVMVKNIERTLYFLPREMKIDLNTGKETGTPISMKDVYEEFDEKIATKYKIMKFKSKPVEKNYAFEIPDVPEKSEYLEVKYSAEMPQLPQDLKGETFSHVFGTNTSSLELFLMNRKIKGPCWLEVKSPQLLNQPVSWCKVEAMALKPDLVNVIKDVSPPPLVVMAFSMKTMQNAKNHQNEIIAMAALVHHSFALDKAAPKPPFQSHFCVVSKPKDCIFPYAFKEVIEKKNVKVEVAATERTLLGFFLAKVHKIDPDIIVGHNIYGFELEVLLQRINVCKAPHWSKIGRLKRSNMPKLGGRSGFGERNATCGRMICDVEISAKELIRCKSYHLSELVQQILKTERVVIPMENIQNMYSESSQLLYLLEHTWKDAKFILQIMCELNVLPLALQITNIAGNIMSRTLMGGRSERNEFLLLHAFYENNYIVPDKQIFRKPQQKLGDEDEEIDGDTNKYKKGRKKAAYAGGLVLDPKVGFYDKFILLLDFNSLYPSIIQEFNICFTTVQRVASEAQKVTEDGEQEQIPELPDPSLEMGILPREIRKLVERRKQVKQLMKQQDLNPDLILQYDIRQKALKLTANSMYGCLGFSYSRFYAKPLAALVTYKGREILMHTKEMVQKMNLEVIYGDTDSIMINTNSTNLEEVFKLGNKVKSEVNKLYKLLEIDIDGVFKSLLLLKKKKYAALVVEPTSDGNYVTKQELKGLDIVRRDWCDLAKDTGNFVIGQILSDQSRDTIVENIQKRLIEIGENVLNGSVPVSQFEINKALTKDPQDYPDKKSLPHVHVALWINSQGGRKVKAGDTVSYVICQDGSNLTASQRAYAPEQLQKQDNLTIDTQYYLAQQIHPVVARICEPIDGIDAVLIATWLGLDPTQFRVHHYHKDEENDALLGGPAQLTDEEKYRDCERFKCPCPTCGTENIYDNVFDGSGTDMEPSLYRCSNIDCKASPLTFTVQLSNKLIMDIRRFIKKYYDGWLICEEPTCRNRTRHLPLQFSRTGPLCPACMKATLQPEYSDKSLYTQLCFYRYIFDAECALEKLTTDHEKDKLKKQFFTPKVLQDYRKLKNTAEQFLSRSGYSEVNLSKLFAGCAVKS
Put plainly: DNA-dependent DNA polymerase activity. Type of experiment: biochemical. As to conditions: DNA Pol α. Here is the method: to the method described previously 1. A 25 nM solution of RSV MTase-CTD protein or RSV L+P complex was incubated with 0.7 µM or 1.8 µM purified synthetic RNA 5’-Gppp […]
[…] (RSV9) for the MTase-CTD or L+P complex, respectively; 2 µM or 0.17 µM S-adenosyl methionine (SAM) for the MTase-CTD or L–P complex, respectively; and 0.1 µM or 0.8 µM 3H-SAM (Perkin Elmer) for the MTase-CTD or L–P complex, respectively; in 50 mM Tris-HCl pH 8.0. Compounds, previously dissolved in DMSO were added at a final concentration of 50 µM or 200 µM. After 3 h incubation at 30°C, reactions were quenched by a 20-fold dilution in ice cold water. Samples were transferred to DEAE filtermats (Perkin Elmer) using a Filtermat Harvester (Packard Instruments). The RNA-retaining mats were washed twice with 10 mM ammonium formate pH 8.0, twice with water and once with ethanol. They were then soaked with scintillation fluid (Perkin Elmer), and 3H-methyl transfer to the RNA substrates was determined using a Wallac MicroBeta TriLux Liquid Scintillation Counter.
Cellular polymerase assays
DNA-dependant DNA polymerase (DdDp) activity
Human DNA polymerases alpha (CHIMERx) at 5 U/ml, beta (CHIMERx) at 0.5 U/ml and gamma (Abcam) at 0.1 mg/ml were incubated with the tested inhibitors at specified concentrations, and a reaction mix composed of 62 µg/ml activated calf thymus DNA, dGTP (2 µM), dATP (2 µM), dCTP (2 µM), [ 3H]dTTP (0.05 µCi/µl), 0.1 mg/ml BSA and a buffer composed of Tris-HCl pH 8 (50 mM), MgCl 2 (5 mM), KCl (60 mM), and DTT (4 mM.) in a total volume of 50 µl. After 2 hours incubation at 30°C, reaction was terminated by addition of 60 µl of a chilled stop solution composed of 20% (w/v) TCA with 0.5 mM ATP. […] Radioactivity was measured via liquid scintillation counting (MicroScint-20, 40µl) on a TriLux apparatus. […]
The RNA transcription activity of human mitochondrial RNA polymerase (POLRMT) was measured by the incorporation of radioactively labeled nucleotides by POLRMT into acid-insoluble RNA products as described previously 2. […]

Regarding `COc1cc(C(=O)NC[C@](O)(c2cc(C(C)(C)O)c(F)c(-c3ccc(F)cc3)n2)C(F)(F)F)cc2cc(C)nnc12` [JNJ-8003], in experiment [1], the EC50 worked out at 0.78 nM. Further, the IC50 in experiment [2] is over 100000 nM.
